Converted amounts (≈) assume the structure as drawn.
Assays:
[1] = tested on: Staphylococcus epidermidis; assay: Antimicrobial activity against Staphylococcus epidermidis assessed as bacterial growth inhibition; type: functional
Proteus mirabilis = assay: Antimicrobial activity against Proteus mirabilis assessed as bacterial growth inhibition; type: functional
Pseudomonas aeruginosa = assay: Antimicrobial activity against Pseudomonas aeruginosa assessed as bacterial growth inhibition; type: functional
Citrobacter freundii = assay: Antimicrobial activity against Citrobacter freundii assessed as bacterial growth inhibition; type: functional
Mycolicibacterium phlei = assay: Antimicrobial activity against Mycobacterium phlei assessed as bacterial growth inhibition; type: functional
Candida albicans = assay: Antimicrobial activity against Candida albicans assessed as bacterial growth inhibition; type: functional
Micrococcus luteus = assay: Antimicrobial activity against Micrococcus luteus assessed as bacterial growth inhibition; type: functional
Proteus vulgaris = assay: Antimicrobial activity against Proteus vulgaris assessed as bacterial growth inhibition; type: functional
Escherichia coli [2] = assay: Antimicrobial activity against Escherichia coli assessed as bacterial growth inhibition; type: functional
Staphylococcus aureus [3] = assay: Antimicrobial activity against Staphylococcus aureus assessed as bacterial growth inhibition; type: functional
[4] = tested on: Staphylococcus saprophyticus; assay: Antimicrobial activity against Staphylococcus saprophyticus assessed as bacterial growth inhibition; type: functional
Klebsiella oxytoca = assay: Antimicrobial activity against Klebsiella oxytoca assessed as bacterial growth inhibition; type: functional
Bacillus subtilis = assay: Antimicrobial activity against Bacillus subtilis assessed as bacterial growth inhibition; type: functional
Mus musculus = assay: Analgesic activity in […] albino mouse at 20 mg/kg, po measured after 2 hrs by Tail-Flick technique relative to control; type: functional
[5] = CNS toxicity in po dosed mouse assessed as depression in CNS; type: organism-based; details: in vivo
Homo sapiens [6] = species on record: Homo sapiens; assay: Immunosuppressive activity in human B cell; type: functional, organism-based
Homo sapiens [7] = species on record: Homo sapiens; assay: Immunosuppressive activity in human T cell; type: functional, organism-based
Staphylococcus aureus [8] = assay: Antibacterial activity against Staphylococcus aureus assessed as zone of inhibition at 100 ppm; type: functional; details: read-out: IZ
Escherichia coli [9] = assay: Antibacterial activity against Escherichia coli assessed as zone of inhibition at 100 ppm; type: functional; details: read-out: IZ

Q: For `O=c1c2ccc(Cl)cc2nc(/C=C/c2ccc(Cl)cc2)n1-c1ccc(OCC2CO2)cc1` (stereo unspecified), which MIC [1] is on record?
A: 125 µg/mL (≈ 269 µM)

Q: What about the MIC (Proteus mirabilis) of the same compound?
A: 125 µg/mL (≈ 269 µM)

Q: And the MIC (Pseudomonas aeruginosa)?
A: 125 µg/mL (≈ 269 µM)

Q: And the MIC (Citrobacter freundii)?
A: 125 µg/mL (≈ 269 µM)

Q: What about the MIC (Mycolicibacterium phlei) of the same compound?
A: 125 µg/mL (≈ 269 µM)

Q: What about the MIC (Candida albicans) of the same compound?
A: 125 µg/mL (≈ 269 µM)

Q: And the MIC (Micrococcus luteus)?
A: 125 µg/mL (≈ 269 µM)

Q: What about the MIC (Proteus vulgaris) of the same compound?
A: 125 µg/mL (≈ 269 µM)

Q: And the MIC (Escherichia coli [2])?
A: 125 µg/mL (≈ 269 µM)

Q: What about the MIC (Staphylococcus aureus [3]) of the same compound?
A: 125 µg/mL (≈ 269 µM)

Q: What about the MIC [4] of the same compound?
A: 125 µg/mL (≈ 269 µM)

Q: And the MIC (Klebsiella oxytoca)?
A: 125 µg/mL (≈ 269 µM)

Q: And the MIC (Bacillus subtilis)?
A: 125 µg/mL (≈ 269 µM)

Q: For `O=c1c2ccc(Cl)cc2nc(/C=C/c2ccccc2[N+](=O)[O-])n1-c1ccc(OCC2CO2)cc1` (stereo unspecified), which MIC [1] is on record?
A: 125 µg/mL (≈ 263 µM)

Q: What about the MIC (Proteus mirabilis) of the same compound?
A: 125 µg/mL (≈ 263 µM)

Q: What about the MIC (Pseudomonas aeruginosa) of the same compound?
A: 125 µg/mL (≈ 263 µM)

Q: What about the MIC (Citrobacter freundii) of the same compound?
A: 125 µg/mL (≈ 263 µM)

Q: What about the MIC (Mycolicibacterium phlei) of the same compound?
A: 125 µg/mL (≈ 263 µM)

Q: What about the MIC (Candida albicans) of the same compound?
A: 125 µg/mL (≈ 263 µM)

Q: And the MIC (Micrococcus luteus)?
A: 125 µg/mL (≈ 263 µM)

Q: And the MIC (Proteus vulgaris)?
A: 125 µg/mL (≈ 263 µM)

Q: And the MIC (Escherichia coli [2])?
A: 125 µg/mL (≈ 263 µM)

Q: And the MIC (Staphylococcus aureus [3])?
A: 125 µg/mL (≈ 263 µM)

Q: And the MIC [4]?
A: 125 µg/mL (≈ 263 µM)

Q: What about the MIC (Klebsiella oxytoca) of the same compound?
A: 125 µg/mL (≈ 263 µM)

Q: What about the MIC (Bacillus subtilis) of the same compound?
A: 125 µg/mL (≈ 263 µM)

Q: Which Activity (Mus musculus) does the source give for `CCN(CC)C(=S)Nn1c(-c2ccccc2)nc2ccccc2c1=O` here?
A: 58%

Q: With `CC(=O)Nc1ccc2nc(CF)n(-c3ccccc3CO)c(=O)c2c1` as the compound, how does the LD50 [5] read?
A: > 1000 mg/kg

Q: Which IC50 (Homo sapiens [6]) does the source give for `Nc1nc2c(c(=O)[nH]1)C[C@@H](CCc1ccc(C(=O)N[C@@H](C[C@H](F)C(=O)O)C(=O)O)cc1)CN2` here?
A: 2930 nM

Q: What about the IC50 (Homo sapiens [7]) of the same compound?
A: 2300 nM

Q: Which zone of inhibition at 100 µg/mL (Staphylococcus aureus [8]) does the source give for `Cc1nc2ccc(Br)cc2c(=O)n1/N=C/c1cc(Br)cc(Br)c1O` here?
A: 16 mm

Q: What about the zone of inhibition at 100 µg/mL (Escherichia coli [9]) of the same compound?
A: 14 mm

Q: With `CCC(CC)=NNC1=Nc2ccccc2C(=O)C1c1ccccc1` (stereo unspecified) as the compound, how does the Activity (Mus musculus) read?
A: 72%

Q: With `Cc1nc2ccccc2c(=O)n1NC(=S)N1CCCC1` as the compound, how does the Activity (Mus musculus) read?
A: 65%

Q: For `O=c1c2ccc([N+](=O)[O-])cc2nc(/C=C/c2ccc(Cl)cc2)n1-c1ccc(O)cc1`, which MIC [1] is on record?
A: 125 µg/mL (≈ 298 µM)

Q: And the MIC (Proteus mirabilis)?
A: 125 µg/mL (≈ 298 µM)

Q: And the MIC (Pseudomonas aeruginosa)?
A: 125 µg/mL (≈ 298 µM)

Q: What about the MIC (Citrobacter freundii) of the same compound?
A: 125 µg/mL (≈ 298 µM)

Q: And the MIC (Mycolicibacterium phlei)?
A: 125 µg/mL (≈ 298 µM)

Q: And the MIC (Candida albicans)?
A: 125 µg/mL (≈ 298 µM)

Q: What about the MIC (Micrococcus luteus) of the same compound?
A: 125 µg/mL (≈ 298 µM)

Q: And the MIC (Proteus vulgaris)?
A: 125 µg/mL (≈ 298 µM)

Q: What about the MIC (Escherichia coli [2]) of the same compound?
A: 125 µg/mL (≈ 298 µM)

Q: And the MIC (Staphylococcus aureus [3])?
A: 125 µg/mL (≈ 298 µM)

Q: And the MIC [4]?
A: 125 µg/mL (≈ 298 µM)

Q: And the MIC (Klebsiella oxytoca)?
A: 125 µg/mL (≈ 298 µM)

Q: And the MIC (Bacillus subtilis)?
A: 125 µg/mL (≈ 298 µM)

Q: Which results are given for `CCOC(=O)Oc1ccc(-n2c(/C=C/c3ccc(Cl)cc3)nc3cc([N+](=O)[O-])ccc3c2=O)cc1`?
A: MIC [1]: 125 µg/mL (≈ 254 µM); MIC (Proteus mirabilis): 125 µg/mL (≈ 254 µM); MIC (Pseudomonas aeruginosa): 125 µg/mL (≈ 254 µM); MIC (Citrobacter freundii): 125 µg/mL (≈ 254 µM); MIC (Mycolicibacterium phlei): 125 µg/mL (≈ 254 µM); MIC (Candida albicans): 125 µg/mL (≈ 254 µM); MIC (Micrococcus luteus): 125 µg/mL (≈ 254 µM); MIC (Proteus vulgaris): 125 µg/mL (≈ 254 µM); MIC (Escherichia coli [2]): 125 µg/mL (≈ 254 µM); MIC (Staphylococcus aureus [3]): 125 µg/mL (≈ 254 µM); MIC [4]: 125 µg/mL (≈ 254 µM); MIC (Klebsiella oxytoca): 125 µg/mL (≈ 254 µM); MIC (Bacillus subtilis): 125 µg/mL (≈ 254 µM)

Q: Which results are given for `Cc1nc2ccc(I)cc2c(=O)n1/N=C/c1cc(Br)cc(Br)c1O`?
A: zone of inhibition at 100 µg/mL (Staphylococcus aureus [8]): 16 mm; zone of inhibition at 100 µg/mL (Escherichia coli [9]): 14 mm

Q: What does the source list for `Cc1nc2ccc(Br)cc2c(=O)n1/N=C/c1cc(I)cc(I)c1O`?
A: zone of inhibition at 100 µg/mL (Staphylococcus aureus [8]): 16 mm; zone of inhibition at 100 µg/mL (Escherichia coli [9]): 14 mm

Q: With `CCOC(=O)Oc1ccc(-n2c(/C=C/c3ccc(Cl)cc3)nc3cc(Cl)ccc3c2=O)cc1` as the compound, how does the MIC [1] read?
A: 125 µg/mL (≈ 260 µM)

Q: And the MIC (Proteus mirabilis)?
A: 125 µg/mL (≈ 260 µM)

Q: And the MIC (Pseudomonas aeruginosa)?
A: 125 µg/mL (≈ 260 µM)

Q: What about the MIC (Citrobacter freundii) of the same compound?
A: 125 µg/mL (≈ 260 µM)

Q: What about the MIC (Mycolicibacterium phlei) of the same compound?
A: 125 µg/mL (≈ 260 µM)

Q: And the MIC (Candida albicans)?
A: 125 µg/mL (≈ 260 µM)

Q: What about the MIC (Micrococcus luteus) of the same compound?
A: 125 µg/mL (≈ 260 µM)

Q: And the MIC (Proteus vulgaris)?
A: 125 µg/mL (≈ 260 µM)

Q: What about the MIC (Escherichia coli [2]) of the same compound?
A: 125 µg/mL (≈ 260 µM)

Q: And the MIC (Staphylococcus aureus [3])?
A: 125 µg/mL (≈ 260 µM)

Q: What about the MIC [4] of the same compound?
A: 125 µg/mL (≈ 260 µM)

Q: What about the MIC (Klebsiella oxytoca) of the same compound?
A: 125 µg/mL (≈ 260 µM)

Q: And the MIC (Bacillus subtilis)?
A: 125 µg/mL (≈ 260 µM)

Q: With `O=C([O-])Cc1ccccc1Nc1c(Cl)cccc1Cl.[Na+]` [DICLOFENAC SODIUM] as the compound, how does the Activity (Mus musculus) read?
A: 60%

Q: With `Cc1nc2ccc(I)cc2c(=O)n1/N=C/c1cc(I)cc(I)c1O` as the compound, how does the zone of inhibition at 100 µg/mL (Staphylococcus aureus [8]) read?
A: 16 mm

Q: And the zone of inhibition at 100 µg/mL (Escherichia coli [9])?
A: 14 mm

Q: With `O=C(CO)Nc1ccc2nc(CF)n(-c3ccccc3CO)c(=O)c2c1` as the compound, how does the LD50 [5] read?
A: > 1000 mg/kg

Q: For `CCC(CC)=NNC1=Nc2ccccc2C(=O)C1c1ccc(OC)cc1` (stereo unspecified), which Activity (Mus musculus) is on record?
A: 64%

Q: For `COc1cc(/C=N/n2c(C)nc3ccc(I)cc3c2=O)cc(I)c1O`, which zone of inhibition at 100 µg/mL (Staphylococcus aureus [8]) is on record?
A: 16 mm

Q: What about the zone of inhibition at 100 µg/mL (Escherichia coli [9]) of the same compound?
A: 14 mm

Q: Which LD50 [5] does the source give for `CC(=O)Nc1ccc2nc(CSCC(NC(C)=O)C(=O)O)n(-c3ccccc3C)c(=O)c2c1` (stereo unspecified) here?
A: > 1000 mg/kg

Q: Which LD50 [5] does the source give for `CC(=O)Nc1ccc2nc(C[S+](C)[O-])n(-c3ccccc3C)c(=O)c2c1` (stereo unspecified) here?
A: > 1000 mg/kg

Source: ChEMBL document CHEMBL5260833, “An overview of quinazolines: Pharmacological significance and recent developments” (Eur J Med Chem, 2018)
